Results as given in patent US20110160223A1, “NMDA Receptor Antagonists for the Treatment of Neuropsychiatric Disorders” (priority 2008, published 2011).
Read-outs that look alike come from different tables or passages of the source.

Molecular target: NMDA receptor (NR1 + NR2 subunits) (Rattus norvegicus, UniProt P35439+Q00960)
Assay: Two electrode voltage clamp recording from Xenopus laevis oocytes (pH dependence of NMDA antagonism)
Type: cell-based
Experimental: cRNA was synthesized from linearized template cDNA for rat glutamate receptor subunits according to manufacturer specifications (Ambion). Quality of synthesized cRNA was assessed by gel electrophoresis, and quantity was estimated by spectroscopy and gel electrophoresis. Stage V and VI oocytes were surgically removed from the ovaries of large, well-fed and healthy Xenopus laevis anesthetized with 3-amino-benzoic acid ethyl ester (3 gm/l) as previously described. Clusters of isolated oocytes were incubated with 292 U/ml Worthington (Freehold, N.J.) type IV collagenase or 1.3 mg/ml collagenase (Life Technologies, Gaithersburg, Md.; 17018-029) for 2 hr in Ca^2+-free solution comprised of (in mM) 115 NaCl, 2.5 KCl, and 10 HEPES, pH 7.5, with slow agitation to remove the follicular cell layer. Oocytes were then washed extensively in the same solution supplemented with 1.8 mM CaCl2 and maintained in Barth's solution comprised of (in mM): 88 NaCl, 1 KCl, 2.4 NaHCO3, 10 HEPES, 0.82 MgSO4, 0.33 Ca(NO3)2, and 0.91 CaCl2 and supplemented with 100 μg/ml gentamycin, 10 μg/ml streptomycin, and 10 μg/ml penicillin. Oocytes were manually defolliculated and injected within 24 hrs of isolation with 3-5 ng of NR1 subunit cRNA and 7-10 ng of NR2 cRNA subunit in a 50 nl volume, or 5-10 ng of AMPA or kainate receptor cRNAs in a 50 nl volume, and incubated in Barth's solution at 18° C. for 1-7 d. Glass injection pipettes had tip sizes ranging from 10-20 microns, and were backfilled with mineral oil.
Two electrode voltage-clamp recordings were made 2-7 days post-injection as previously described. Oocytes were placed in a dual-track plexiglass recording chamber with a single perfusion line that splits in a Y-configuration to perfuse two oocytes. Dual recordings were made at room temperature (23° C.) using two Warner OC725B two-electrode voltage clamp amplifiers, arranged as recommended by the manufacturer. Glass microelectrodes (1-10 Megaohms) were filled with 300 mM KCl (voltage electrode) or 3 M KCl (current electrode). The bath clamps communicated across silver chloride wires placed into each side of the recording chamber, both of which were assumed to be at a reference potential of 0 mV. Oocytes were perfused with a solution comprised of (in mM) 90 NaCl, 1 KCl, 10 HEPES, and 0.5 BaCl2; pH was adjusted by addition of 1-3 M NaOH of HCl. Oocytes were recorded under voltage clamp at −40 mV. Final concentrations for control application of glutamate (50 μM) plus glycine (30 μM) were achieved by adding appropriate volumes from 100 and 30 mM stock solutions, respectively. In addition, 10 μM final EDTA was obtained by adding a 1:1000 dilution of 10 mM EDTA, in order to chelate contaminant divalent ions such as Zn^2+. Concentration-response curves for experimental compounds were obtained by applying in successive fashion maximal glutamate/glycine, followed by glutamate/glycine plus variable concentrations of experimental compounds. Dose response curves consisting of 4 to 8 concentrations were obtained in this manner. The baseline leak current at −40 mV was measured before and after recording, and the full recording linearly corrected for any change in leak current. Oocytes with glutamate-evoked responses smaller than 50 nA were not included in the analysis. The level of inhibition by applied experimental compounds was expressed as a percent of the initial glutamate response, and averaged together across oocytes from a single frog. Each experiment consisted of recordings from 3 to 10 oocytes obtained from a single frog. Results from 3-6 experiments were pooled, and the average percent responses at antagonist concentrations were fitted by the equation,
Percent Response=(100−minimum)/(1+([conc]/IC50)^nH)+minimum […]

[1] = pH 6.9, Table 17, read-out: IC50 at pH 6.9
[2] = pH 7.6, Table 17, read-out: IC50 at pH 7.6
[3] = pH 6.9, Table 18, read-out: IC50 at pH 6.9
[4] = pH 7.6, Table 18, read-out: IC50 at pH 7.6
[5] = pH 6.9, Table 19, read-out: IC50 at pH 6.9
[6] = pH 7.6, Table 19, read-out: IC50 at pH 7.6
[7] = pH 6.9, Table 20, read-out: IC50 at pH 6.9
[8] = pH 7.6, Table 20, read-out: IC50 at pH 7.6

Sequence of NMDA receptor (NR1 + NR2 subunits) (Q00960 27-1482, other chains not shown): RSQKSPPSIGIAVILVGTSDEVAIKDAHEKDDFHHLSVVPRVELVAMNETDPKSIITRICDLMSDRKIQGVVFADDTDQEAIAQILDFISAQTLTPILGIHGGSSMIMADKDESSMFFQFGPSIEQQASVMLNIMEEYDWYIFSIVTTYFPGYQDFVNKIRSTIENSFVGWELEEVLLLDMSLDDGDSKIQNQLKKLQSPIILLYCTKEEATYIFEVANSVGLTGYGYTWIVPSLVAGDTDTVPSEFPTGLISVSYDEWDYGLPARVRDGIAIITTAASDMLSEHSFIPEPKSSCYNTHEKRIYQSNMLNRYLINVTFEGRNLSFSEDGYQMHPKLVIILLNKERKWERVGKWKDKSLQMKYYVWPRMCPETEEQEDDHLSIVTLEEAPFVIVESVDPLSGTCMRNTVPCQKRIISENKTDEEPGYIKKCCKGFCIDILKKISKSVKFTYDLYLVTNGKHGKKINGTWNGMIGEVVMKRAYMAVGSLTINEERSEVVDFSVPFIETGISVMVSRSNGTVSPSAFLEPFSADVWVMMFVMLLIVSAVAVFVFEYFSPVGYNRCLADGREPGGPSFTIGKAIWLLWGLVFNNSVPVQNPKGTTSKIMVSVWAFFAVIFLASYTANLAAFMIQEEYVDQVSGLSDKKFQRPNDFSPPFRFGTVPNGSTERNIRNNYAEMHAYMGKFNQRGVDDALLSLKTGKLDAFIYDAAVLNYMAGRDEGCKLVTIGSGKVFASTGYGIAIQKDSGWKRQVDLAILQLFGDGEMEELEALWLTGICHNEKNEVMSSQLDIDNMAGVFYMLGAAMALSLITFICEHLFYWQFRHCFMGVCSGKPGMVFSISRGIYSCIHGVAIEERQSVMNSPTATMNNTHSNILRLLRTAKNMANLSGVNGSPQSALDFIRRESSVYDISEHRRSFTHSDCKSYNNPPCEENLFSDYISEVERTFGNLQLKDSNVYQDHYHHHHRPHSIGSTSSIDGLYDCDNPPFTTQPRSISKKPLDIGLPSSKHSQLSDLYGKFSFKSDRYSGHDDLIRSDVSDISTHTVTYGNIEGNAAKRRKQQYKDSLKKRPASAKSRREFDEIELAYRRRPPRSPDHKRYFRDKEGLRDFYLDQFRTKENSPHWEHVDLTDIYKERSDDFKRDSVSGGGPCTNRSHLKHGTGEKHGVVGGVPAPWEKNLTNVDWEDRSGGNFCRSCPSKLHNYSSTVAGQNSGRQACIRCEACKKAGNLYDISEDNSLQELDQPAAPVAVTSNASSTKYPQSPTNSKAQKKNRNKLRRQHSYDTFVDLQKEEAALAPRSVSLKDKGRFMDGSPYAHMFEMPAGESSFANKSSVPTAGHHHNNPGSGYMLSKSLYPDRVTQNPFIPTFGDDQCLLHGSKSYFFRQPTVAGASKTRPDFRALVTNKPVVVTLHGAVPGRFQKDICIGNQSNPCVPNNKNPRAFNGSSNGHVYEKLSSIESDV

Row | SMILES | IC50 [5] | IC50 [6] | further results
1 | CS(=O)(=O)Nc1ccc(OCC(O)CN2CCN(c3ccc(F)c(F)c3)CC2)cc1 (stereo not drawn) | – | – | IC50 [1]: 0.031 µM; IC50 [2]: 0.557 µM
2 | CS(=O)(=O)Nc1ccc(OCC(O)CNCCNc2ccc(Cl)c(Cl)c2)cc1 (stereo not drawn) | – | – | IC50 [1]: 0.012 µM; IC50 [2]: 0.062 µM
3 | CS(=O)(=O)Nc1ccc(OCC(O)CN2CCN(c3ccc(Cl)c(Cl)c3)CC2)cc1 (stereo not drawn) | – | – | IC50 [1]: 0.296 µM; IC50 [2]: 1.02 µM
4 | CS(=O)(=O)Nc1ccc(OCC(O)CN2CCN(c3ccc(Cl)cc3)CC2)cc1 (stereo not drawn) | – | – | IC50 [1]: 0.032 µM; IC50 [2]: 0.27 µM
5 | CS(=O)(=O)Nc1ccc(OCC(O)CN2CCN(c3ccccc3)CC2)cc1 (stereo not drawn) | – | – | IC50 [1]: 0.213 µM; IC50 [2]: 1.02 µM
6 | CS(=O)(=O)Nc1ccc(OCC(O)CN2CCN(c3ccc(O)cc3)CC2)cc1 (stereo not drawn) | – | – | IC50 [1]: 2.4 µM; IC50 [2]: 28 µM
7 | CS(=O)(=O)Nc1ccc(OCC(O)CN2CCN(c3ccccn3)CC2)cc1 (stereo not drawn) | – | – | IC50 [1]: 1.81 µM; IC50 [2]: 12.7 µM
8 | CS(=O)(=O)Nc1ccc(OCC(O)CN2CCN(c3ccncc3)CC2)cc1 (stereo not drawn) | – | – | IC50 [1]: > 30 µM; IC50 [2]: > 30 µM
9 | CS(=O)(=O)Nc1ccc(OCC(O)CNCCNc2ccccc2)cc1 (stereo not drawn) | – | – | IC50 [1]: 0.055 µM; IC50 [2]: 0.133 µM
10 | CS(=O)(=O)Nc1ccc(OCC(O)CNCCNc2ccc(F)c(F)c2)cc1 (stereo not drawn) | – | – | IC50 [1]: 0.108 µM; IC50 [2]: 0.199 µM
11 | CS(=O)(=O)Nc1ccc(OCC(O)CNC/C=C/c2ccc(Cl)c(Cl)c2)cc1 (stereo not drawn) | – | – | IC50 [1]: 0.007 µM; IC50 [2]: 0.038 µM
12 | CCCCN(C/C=C/c1ccc(Cl)c(Cl)c1)CC(O)COc1ccc(NS(C)(=O)=O)cc1 (stereo not drawn) | – | – | IC50 [1]: 0.163 µM; IC50 [2]: 2.58 µM
13 | CS(=O)(=O)Nc1ccc(OCC(O)CNC/C=C/c2ccc(F)c(F)c2)cc1 (stereo not drawn) | – | – | IC50 [1]: 0.038 µM; IC50 [2]: 0.071 µM
14 | O=c1[nH]c2ccc(OCC(O)CN3CCN(c4ccc(Cl)cc4)CC3)cc2o1 (stereo not drawn) | – | – | IC50 [3]: 0.079 µM; IC50 [4]: 0.726 µM
15 | O=c1[nH]c2ccc(OC[C@H](O)CN3CCN(c4ccc(F)c(F)c4)CC3)cc2o1 | – | – | IC50 [3]: 0.145 µM; IC50 [4]: 1.7 µM
16 | O=c1[nH]c2ccc(OC[C@H](O)CN3CCN(c4ccc(Cl)c(Cl)c4)CC3)cc2o1 | – | – | IC50 [3]: 0.185 µM; IC50 [4]: 1.5 µM
17 | Cc1ccc(N2CCN(C[C@@H](O)COc3ccc4[nH]c(=O)oc4c3)CC2)cc1 | – | – | IC50 [3]: 0.072 µM; IC50 [4]: 0.644 µM
18 | O=c1[nH]c2ccc(OCC(O)CNCCc3ccc(Cl)c(Cl)c3)cc2o1 (stereo not drawn) | – | – | IC50 [3]: 0.185 µM; IC50 [4]: 0.446 µM
19 | O=c1[nH]c2ccc(OCC(O)CNCCNc3ccc(Cl)cc3)cc2o1 (stereo not drawn) | – | – | IC50 [3]: 0.025 µM; IC50 [4]: 0.097 µM
20 | Oc1ccc(OC[C@H](O)CN2CCN(c3ccc(Cl)cc3)CC2)cc1 | 0.08 µM | 0.814 µM | –
21 | Oc1ccc(OC[C@H](O)CN2CCN(c3ccc(Cl)c(Cl)c3)CC2)cc1 | 0.131 µM | 0.611 µM | –
22 | Oc1ccc(OCC(O)CN2CCN(c3ccc(F)c(F)c3)CC2)cc1 (stereo not drawn) | 0.087 µM | 0.98 µM | –
23 | Oc1ccc(OC[C@H](O)CN2CCN(c3ccc(F)c(F)c3)CC2)cc1 | 0.05 µM | 0.272 µM | –
24 | Oc1ccc(OC[C@H](O)CN2CCN(c3ccc(F)cc3)CC2)cc1 | 0.087 µM | 0.529 µM | –
25 | Cc1ccc(N2CCN(CC(O)COc3ccc(O)cc3)CC2)cc1C (stereo not drawn) | 1.5 µM | 5.79 µM | –
26 | Cc1ccc(N2CCN(CC(O)COc3ccc(O)cc3)CC2)cc1 (stereo not drawn) | 0.07 µM | 0.26 µM | –

Row | SMILES | IC50 [5] | IC50 [6] | further results
27 | N#Cc1ccc(N2CCN(C[C@@H](O)COc3ccc(O)cc3)CC2)cc1 | 0.46 µM | 4.37 µM | –
28 | Oc1ccc(OCC(O)CN2CCN(c3ccc(Br)cc3)CC2)cc1 (stereo not drawn) | 0.073 µM | 0.204 µM | –
29 | Oc1ccc(OCC(O)CN2CCN(c3ccc(O)cc3)CC2)cc1 (stereo not drawn) | 0.576 µM | 4.7 µM | –
30 | COc1ccc(N2CCN(C[C@@H](O)COc3ccc(O)cc3)CC2)cc1 | 0.562 µM | 9.74 µM | –
31 | Oc1ccc(OCC(O)CN2CCN(c3ccc(C(F)(F)F)cc3)CC2)cc1 (stereo not drawn) | 0.113 µM | 0.448 µM | –
32 | Oc1ccc(OCC(O)CN2CCN(c3ccc(-c4ccccc4)cc3)CC2)cc1 (stereo not drawn) | 6.95 µM | 191 µM | –
33 | Oc1ccc(OC[C@H](O)CN2CCN(c3ccc(F)cc3F)CC2)cc1 | 0.529 µM | 3.56 µM | –
34 | Oc1ccc(OC[C@H](O)CN2CCN(c3ccccc3F)CC2)cc1 | 0.541 µM | 1.73 µM | –
35 | Oc1ccc(OCC(O)CN2CCN(c3ccccc3Cl)CC2)cc1 (stereo not drawn) | 0.978 µM | 4.39 µM | –
36 | Cc1ccccc1N1CCN(C[C@@H](O)COc2ccc(O)cc2)CC1 | 0.43 µM | 3.93 µM | –
37 | N#Cc1ccccc1N1CCN(C[C@@H](O)COc2ccc(O)cc2)CC1 | 3.21 µM | 8.33 µM | –
38 | Oc1ccc(OCC(O)CN2CCN(c3ccccc3)CC2)cc1 (stereo not drawn) | 0.217 µM | 0.476 µM | –
39 | Oc1ccc(OC[C@H](O)CN2CCN(c3cccc(F)c3)CC2)cc1 | 0.211 µM | 0.598 µM | –
40 | Oc1ccc(OC[C@H](O)CN2CCN(c3cccc(Cl)c3)CC2)cc1 | 0.257 µM | 4.8 µM | –
41 | Cc1cccc(N2CCN(C[C@@H](O)COc3ccc(O)cc3)CC2)c1 | 0.341 µM | 1.74 µM | –
42 | Oc1ccc(OCC(O)CN2CCN(c3cccc(C(F)(F)F)c3)CC2)cc1 (stereo not drawn) | 0.386 µM | 3.79 µM | –
43 | Oc1ccc(OCC(O)CNCCc2ccc(Cl)c(Cl)c2)cc1 (stereo not drawn) | 0.197 µM | 0.501 µM | –
44 | CCCCN(CCc1ccc(Cl)c(Cl)c1)CC(O)COc1ccc(O)cc1 (stereo not drawn) | 0.585 µM | 6.5 µM | –
45 | Oc1ccc(OCC(O)CNCCc2ccc(Cl)c(Cl)c2)c(F)c1 (stereo not drawn) | 0.116 µM | 0.33 µM | –
46 | Oc1ccc(OCC(O)CNCCc2ccc(Cl)c(Cl)c2)cc1F (stereo not drawn) | 0.114 µM | 0.549 µM | –
47 | Oc1ccc(OC[C@H](O)CN2CCC(O)(c3ccccc3)CC2)cc1 | 0.191 µM | 0.298 µM | –
48 | NC(=O)Nc1ccc(OCCCN2CCN(c3ccc(F)c(F)c3)CC2)cc1 | – | – | IC50 [7]: 0.082 µM; IC50 [8]: 0.696 µM
49 | NC(=O)Nc1ccc(OC[C@H](O)CN2CCN(c3ccc(Cl)cc3)CC2)cc1 | – | – | IC50 [7]: 0.019 µM; IC50 [8]: 0.06 µM
50 | CCNC(=O)Nc1ccc(OCCCN2CCN(c3ccc(F)cc3)CC2)cc1 | – | – | IC50 [7]: 3.03 µM; IC50 [8]: 15.7 µM
51 | COC(=O)Nc1ccc(OCCCN2CCN(c3ccc(F)cc3)CC2)cc1 | – | – | IC50 [7]: 1.54 µM; IC50 [8]: 16.2 µM
